The values that follow come from patent US7910723B2, “IG20 splice variants therapeutics for cancer” (The Board of Trustees of the University of Illinois, priority 2006, dated 2011).

What all share (format): cell-based
Experiment [1] concerns MADD. The experiment is described as follows: Phosphorylation of exogenous wtMADD in HEK293 cells (anti-phospho antibodies). As to conditions: HEK293 transfected with wtMADD; LY 10 μM 1 h, IGF-1 150 ng/ml 20 minutes. The protocol:
(A) In vitro phosphorylation of rMADD by Akt. GST-wtMADD or -MADD mutants were expressed in bacteria, purified, and then incubated with rAkt and γ[^32P] ATP. After 1 h incubation at 30° C., the products were resolved on SDS-PAGE and ^32P-labeled proteins were visualized by autoradiography. (B) MADD is labeled by [^32P]orthophosphate in vivo. HEK293 cells were transfected with wtMADD or MADD mutant constructs. Twenty-four hours after transfection cells were incubated with 0.3 mCi/ml [32P]orthophosphate for 6 h. MADD was immunoprecipitated with an anti-YFP antibody. The precipitated MADD was separated by SDS-PAGE, transferred to a nitrocellulose membrane, and subjected to autoradiography. Loaded MADD was visualized by staining the same membrane with an anti-YFP antibody. (C) HEK293 cells were transfected with cDNAs for wtMADD or MADD mutants and. 36 h later the cells were harvested for immunoblotting using the anti-phospho-S-70, -T-173 or -T-1041 antibodies. An anti-YFP antibody was used to detect exogenous MADD. (D) HEK293 cells were transfected with wtMADD and 24 hours later cells were serum starved for 20 h. Subsequently, they were treated with LY (10 μM) for 1 h and/or IGF-1 (150 ng/ml) for 20 minutes. The cell lysates were immunoblotted and probed with anti phospho-specific antibodies or an anti-YFP antibody. […]

The subject of experiment [2] is MADD. The experiment is described as follows: Phosphorylation of endogenous MADD in HeLa cells (anti-phospho antibodies). As to conditions: LY 10 μM 1 h, IGF-1 150 ng/ml 20 minutes.
The subject of another experiment is DR4. The experiment is described as follows: Association of exogenous MADD with DR4 in HEK293 cells (immunoprecipitation). The protocol:
(A) Phosphorylation status of MADD could influence its binding to DR4. HEK293 cells were transfected with wtMADD or MADD mutants. 36 h after transfection, the cells were harvested for immunoprecipitation using an anti-DR4 antibody followed by immunoblotting using an anti-YFP antibody to detect exogenous MADD. The membrane was reprobed with an anti-DR4 antibody to show the protein loading. (B) PI3K can influence the association of exogenous MADD with DR4. HEK293 cells were transfected with wtMADD. Twenty four hours after transfection, the cells were serum starved for 20 h. Further, they were treated with LY (10 μM) for 1 h, IGF-1 (150 ng/ml) for 20 minutes. Immunoprecipitation using an anti-DR4 antibody was followed by immunoblotting using anti-YFP or anti-DR4 antibody. (C) Akt can influence exogenous MADD association with DR4. HEK293 cells were co-transfected with wtMADD along with DN-Akt or the empty vector pcDNA3.1 (pcDNA). Thirty six hours after transfection, the cells were harvested for immunoprecipitation using anti-DR4 antibody followed by immunoblotting with an anti-YFP or an anti-DR4 antibody. (D) PI3K can influence the association of endogenous MADD with DR4. HeLa cells were serum starved for 20 h, then treated with LY (10 μM) for 1 h, IGF-1 (150 ng/ml) for 20 minutes. Immunoprecipitation using an anti-DR4 antibody was followed by immunoblotting with an anti-MADD or an anti-DR4 antibody. (E) Akt can influence the association of endogenous MADD with DR4. HeLa cells were transfected with DN-Akt or pcDNA. Thirty six hours after transfection, the cells were collected for immunoprecipitation using an anti-DR4 antibody followed by immunoblotting with an anti-MADD antibody.
MADD can bind to DR4 and thereby block the activation of the extrinsic apoptotic pathway. […] Stimulation of PI3K by IGF-1 increased, while inhibition by LY reduced, the association between wtMADD and DR4 (FIG. 15B). […] This interaction was reduced in the presence of LY (FIG. 15D) or DN-Akt (FIG. 15E).
Immunoprecipitation. Immunoprecipitations were performed using standard procedures. The samples were precleared with 10% (vol/vol) Protein-A agarose (Roche) for 1 h on a rocking platform. Specific antibodies were added and rocked for 1 h. Immunoprecipitates were captured by incubating with 10% (vol/vol) Protein-A agarose for an hour. The agarose beads were spun down and washed three times with NET/NP40 buffer (150 mM NaCl, 2 mM EDTA, 50 mM Tris-HCl pH 7.5, 0.1% NP-40). The antigens were released and denatured by adding SDS sample buffer. Immunoblots were prepared and analysed as described above.

A further experiment has as its system Akt and MADD. In words: TRAIL treatment of HeLa cells: Akt and MADD phosphorylation, caspase-8 activation (immunoblot). The settings on record: TRAIL 50 ng/ml. As for the experimental part: (A) TRAIL treatment reduces the levels of Akt and MADD phosphorylation, and leads to caspase-8 activation. Hela cells were treated with TRAIL (50 ng/ml). The phosphorylation level of Akt was analyzed by immunoblotting using an anti-phospho Akt antibody. The phosphorylation levels of MADD was analyzed by immunoblotting using the anti-phospho T1041 antibody. Caspase-8 activation was analyzed by immunoblotting using an anti-caspase-8 antibody. (B) TRAIL induces FADD-procaspase-8 binding depending upon MADD phosphorylation status. HeLa cells were transfected either with caAkt or pcDNA3.1 empty vector. Cells were treated with TRAIL for 1 h. The MADD phosphorylation was analyzed by immunoblotting using the anti-phospho T1041 antibody. The association of procaspase-8 and FADD was analyzed by immunoprecipitation using an anti-FADD antibody followed by immunoblotting using an anti-caspase-8 antibody. […] 24 h later cells were treated with TRAIL (50 ng/ml) for 4 hours and caspase-8 activity was analyzed. *p<0.05 vs TRAIL+caAkt. […] The localizations of phosphorylated and nonphosphorylated forms of MADD in the membrane and cytosolic fractions were analyzed by immunoblotting using the anti-phospho T1041 antibody. […] The Bax distribution in cytoplasm and HM was analyzed by immunoblotting using an anti-Bax antibody. […] The distributions of Bax in cytoplasm and HM were analyzed as described for (E). […]
In general terms: A western blot detects proteins with antibodies after separation by electrophoresis.

As to insulin-like growth factor-1 [IGF-1], the “S70, T173 and T1041 phosphorylation levels of MADD” value with MADD [1] is listed as “increased”. The “Phosphorylation of endogenous MADD” value in the experiment with MADD [2] is listed as “phosphorylated at all three sites”. The “Association of exogenous MADD with DR4” value in the experiment with DR4 is “increased”.

For the substance “tumor necrosis factor-related apoptosis-inducing ligand [TRAIL]”, in the experiment on Akt and MADD, the Caspase-8 activation entry is listed as “concomitant activation of caspase-8”; the “Levels of phosphorylation of Akt and MADD” value is “reduced”.
